Laboratory results from US20210300940A1 (Merck Patent GmbH, priority 2018, published 2021).
Where a name gives a salt, the structure may show the parent alone.

Tests used:
TLR7 = target: T1, TLR7 (Homo sapiens, UniProt Q9NYK1); experiment: HEK/293 TLR7 Cell Assay; format: cell-based; details: TLR7/NFKb HEK cells, R848 agonist 10 uM final concentration, Steady-Glo readout; read-out: TLR7 potency
T1 construct: expressed in transfected cells; host or cells: HEK/293 cells carrying TLR7 and an NF-kB luciferase reporter
T1 sequence (Q9NYK1 27-1049): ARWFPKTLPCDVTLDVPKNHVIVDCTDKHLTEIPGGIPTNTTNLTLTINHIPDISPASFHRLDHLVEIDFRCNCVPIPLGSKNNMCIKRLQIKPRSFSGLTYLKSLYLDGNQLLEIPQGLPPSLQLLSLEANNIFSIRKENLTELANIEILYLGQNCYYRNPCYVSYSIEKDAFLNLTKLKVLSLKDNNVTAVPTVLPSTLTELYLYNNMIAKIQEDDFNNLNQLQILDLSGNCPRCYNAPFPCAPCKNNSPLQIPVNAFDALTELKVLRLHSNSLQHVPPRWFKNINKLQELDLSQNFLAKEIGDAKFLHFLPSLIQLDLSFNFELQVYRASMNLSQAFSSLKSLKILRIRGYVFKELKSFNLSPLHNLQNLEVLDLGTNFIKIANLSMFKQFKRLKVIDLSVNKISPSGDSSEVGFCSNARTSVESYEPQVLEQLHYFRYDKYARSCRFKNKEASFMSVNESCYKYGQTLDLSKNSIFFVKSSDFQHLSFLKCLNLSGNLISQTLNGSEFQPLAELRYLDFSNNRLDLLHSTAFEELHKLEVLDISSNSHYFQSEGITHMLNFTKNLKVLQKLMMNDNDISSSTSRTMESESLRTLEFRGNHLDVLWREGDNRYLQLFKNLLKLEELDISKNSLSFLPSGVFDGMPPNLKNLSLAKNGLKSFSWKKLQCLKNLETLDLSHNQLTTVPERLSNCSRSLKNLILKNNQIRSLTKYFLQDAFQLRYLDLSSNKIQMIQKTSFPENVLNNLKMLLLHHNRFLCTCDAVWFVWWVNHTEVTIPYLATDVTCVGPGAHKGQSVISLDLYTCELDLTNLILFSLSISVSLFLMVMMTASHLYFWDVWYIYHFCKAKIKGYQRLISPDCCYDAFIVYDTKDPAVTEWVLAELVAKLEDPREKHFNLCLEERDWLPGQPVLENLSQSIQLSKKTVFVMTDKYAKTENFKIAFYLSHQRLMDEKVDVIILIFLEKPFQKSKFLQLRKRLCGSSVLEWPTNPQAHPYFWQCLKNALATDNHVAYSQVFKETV
In short: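 TLR7/NF-κB reporter HEK293 cells, 5000/well, cultured 24 h, then preincubated 30 min with compound before R848 agonist (10 uM final). After 5 h stimulation, Steady-Glo luciferase luminescence read.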

TLR8 = target: T2, TLR8 (Homo sapiens, UniProt Q9NR97); experiment: HEK/293 TLR8 Cell Assay; format: cell-based; details: HEK cells, R848 agonist 30 uM final concentration, Steady-Glo readout; read-out: TLR8 potency
T2 construct: expressed in transfected cells; host or cells: HEK/293 reporter cells (NF-kB luciferase)
T2 sequence (Q9NR97 27-1041): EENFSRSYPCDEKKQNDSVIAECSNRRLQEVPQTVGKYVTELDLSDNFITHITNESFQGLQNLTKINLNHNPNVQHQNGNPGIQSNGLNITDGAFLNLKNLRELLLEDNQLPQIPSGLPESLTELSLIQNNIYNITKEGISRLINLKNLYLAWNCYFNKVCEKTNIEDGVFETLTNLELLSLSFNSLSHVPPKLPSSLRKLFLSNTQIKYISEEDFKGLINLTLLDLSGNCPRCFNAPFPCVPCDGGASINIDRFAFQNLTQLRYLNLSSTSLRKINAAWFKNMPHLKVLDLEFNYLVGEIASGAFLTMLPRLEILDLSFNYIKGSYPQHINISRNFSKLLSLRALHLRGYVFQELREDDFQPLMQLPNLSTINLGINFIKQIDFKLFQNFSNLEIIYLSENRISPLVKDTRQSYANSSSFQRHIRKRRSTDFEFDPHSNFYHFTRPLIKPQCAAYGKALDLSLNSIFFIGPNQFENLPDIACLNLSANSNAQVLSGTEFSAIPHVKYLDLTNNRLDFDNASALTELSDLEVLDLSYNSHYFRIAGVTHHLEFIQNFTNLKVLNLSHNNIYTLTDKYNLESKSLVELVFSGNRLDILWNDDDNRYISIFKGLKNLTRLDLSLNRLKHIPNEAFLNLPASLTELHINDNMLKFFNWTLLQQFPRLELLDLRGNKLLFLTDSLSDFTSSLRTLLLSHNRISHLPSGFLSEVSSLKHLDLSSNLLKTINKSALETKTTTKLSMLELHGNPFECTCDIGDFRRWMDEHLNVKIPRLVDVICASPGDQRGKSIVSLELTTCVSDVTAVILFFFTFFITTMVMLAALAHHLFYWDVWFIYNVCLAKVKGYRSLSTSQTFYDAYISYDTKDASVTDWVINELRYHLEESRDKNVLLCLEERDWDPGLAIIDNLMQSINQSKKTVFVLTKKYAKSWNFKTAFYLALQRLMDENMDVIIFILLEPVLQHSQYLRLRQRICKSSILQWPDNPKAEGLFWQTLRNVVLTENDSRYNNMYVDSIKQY

| SMILES | IC50 (TLR7) [nM] | IC50 (TLR8) [nM] |
| --- | --- | --- |
| C[C@H]1C[C@@H](NCC(C)(F)C(=O)O)CN(c2ccc(C#N)c3nccnc23)C1 (stereo partly drawn) [Example 15, 3-[(3R,5S)-1-(8-Cyano-quinoxalin-5-yl)-5-methyl-piperidin-3-ylamino]-2-fluoro-2-methyl-propionic acid] | < 75 | < 75 |
| C[C@@H]1CN(c2ccc(C#N)c3nccnc23)C[C@H](C(=O)NCC(C)(C)O)O1 [Example 246, (2R,6R)-4-(8-Cyano-quinoxalin-5-yl)-6-methyl-morpholine-2-carboxylic acid (2-hydroxy-2-methyl-propyl)-amide] | < 75 | < 75 |
| C[C@H]1C[C@@H](NCC(O)CO)CN(c2cnc(C#N)c3ncccc23)C1 (stereo partly drawn) [Example 35, 5-[(3R,5S)-3-(2,3-Dihydroxy-propylamino)-5-methyl-piperidin-1-yl]-naphthyridine-8-carbonitrile] | > 150 | > 150 |
| Cc1ccc(N2C[C@@H](C)C[C@@H](NC(=O)CC3(O)CCN(C)CC3)C2)c2cccnc12 [Example 85, 2-(4-hydroxy-1-methylpiperidin-4-yl)-N-[(3R,5S)-5-methyl-1-(8-methylquinolin-5-yl)piperidin-3-yl]acetamide hydrochloride] | < 75 | < 75 |
| C[C@@H]1CN(c2ccc(C#N)c3nccnc23)C[C@H](CN2CCC(C(C)(C)O)C2)O1 (stereo partly drawn) [Example 222, 8-{(2S,6R)-2-[3-(1-Hydroxy-1-methyl-ethyl)-pyrrolidin-1-ylmethyl]-6-methyl-morpholin-4-yl}-quinoxaline-5-carbonitrile] | < 75 | 75 to 150 |
| O=C(N[C@@H]1C[C@H](C(F)(F)F)CN(c2ccc(C(F)(F)F)c3ncccc23)C1)[C@@H]1CCCN1 [Example 123, (2S)—N-[(3R,5S)-5-(trifluoromethyl)-1-[8-(trifluoromethyl)quinolin-5-yl]piperidin-3-yl]pyrrolidine-2-carboxamide] | 75 to 150 | < 75 |
| Cc1cc(CC(=O)N[C@@H]2C[C@H](C)CN(c3ccc(C#N)c4nccnc34)C2)on1 [Example 74, N-[(3R,5S)-1-(8-cyanoquinoxalin-5-yl)-5-methylpiperidin-3-yl]-2-(3-methyl-1,2-oxazol-5-yl)acetamide] | < 75 | < 75 |
| CC(=O)NCCSC[C@H]1CN(c2cnc(C#N)c3ncccc23)C[C@@H](C)O1 [Example 374, N-{2-[(2R,6R)-4-(8-Cyano-[1,7]naphthyridin-5-yl)-6-methyl-morpholin-2-ylmethylsulfanyl]-ethyl}-acetamide] | > 150 | 75 to 150 |
| C[C@@H](O)CNC(=O)[C@H]1CN(c2ccc(C#N)c3nccnc23)C[C@@H](C(F)(F)F)O1 (single isomer, unassigned) [Example 278] | > 150 | > 150 |
| C[C@H]1C[C@@H](NCCNS(C)(=O)=O)CN(c2ccc(C(F)(F)F)c3ncccc23)C1 [Example 20, N-(2-{[(3R,5S)-5-methyl-1-[8-(trifluoromethyl)quinolin-5-yl]piperidin-3-yl]amino}ethyl)methanesulfonamide] | < 75 | < 75 |
| C[C@@H]1CN(c2ccc(C#N)c3ncncc23)C[C@H](C(=O)NC2CCC(N3CCOCC3)CC2)O1 (stereo partly drawn) [Example 268, (2R,6R)-4-(8-Cyano-quinazolin-5-yl)-6-methyl-morpholine-2-carboxylic acid (4-morpholin-4-yl-cyclohexyl)-amide] | < 75 | < 75 |
| N#Cc1ccc(N2C[C@H](NC(=O)[C@@H]3CCCN3)C[C@H](C(F)(F)F)C2)c2nccnc12 [Example 124, (2S)—N-[(3R,5S)-1-(8-cyanoquinoxalin-5-yl)-5-(trifluoromethyl)piperidin-3-yl]pyrrolidine-2-carboxamide] | < 75 | < 75 |
| CC(=O)NCCNC[C@H]1CN(c2cnc(C#N)c3ncccc23)C[C@@H](C)O1 [Example 380, N-(2-{[(2S,6R)-4-(8-Cyano-[1,7]naphthyridin-5-yl)-6-methyl-morpholin-2-ylmethyl]-amino}-ethyl)-acetamide] | > 150 | > 150 |
| C[C@H]1C[C@@H](OCCN2CCN(C)CC2)CN(c2ccc(C#N)c3nccnc23)C1 (racemic) [Example 1, 8-[(3S,5R)-3-methyl-5-[2-(4-methylpiperazin-1-yl)ethoxy]piperidin-1-yl]quinoxaline-5-carbonitrile] | < 75 | < 75 |
| C[C@@H]1CN(c2ccc(C#N)c3nccnc23)C[C@H](CSC2CNC2)O1 [Example 225, 8-[(2R,6R)-2-(Azetidin-3-ylsulfanylmethyl)-6-methyl-morpholin-4-yl]-quinoxaline-5-carbonitrile hydrochloride] | < 75 | < 75 |
| C[C@H](N)C(=O)N[C@@H]1C[C@H](C(F)(F)F)CN(c2ccc(C(F)(F)F)c3ncccc23)C1 [Example 171, (S)-2-Amino-N-[(3R,5S)-5-trifluoromethyl-1-(8-trifluoromethyl-quinolin-5-yl)-piperidin-3-yl]-propionamide] | < 75 | < 75 |
| C[C@@H]1CN(c2cnc(C#N)c3ncccc23)C[C@H](CN2CCN(C)CC2)O1 [Example 368, 5-[(2R,6S)-2-Methyl-6-(4-methyl-piperazin-1-ylmethyl)-morpholin-4-yl]-naphthyridine-8-carbonitrile] | < 75 | < 75 |
| C[C@@H]1CN(c2ccc(C#N)c3nccnc23)C[C@H](C(=O)NC[C@@H]2COCCN2C)O1 (single isomer, unassigned) [Example 264] | < 75 | < 75 |
| CCN1CCN(C[C@H]2CN(c3cnc(C#N)c4ncccc34)C[C@@H](C)O2)CC1 [Example 371, 5-[(2S,6R)-2-(4-Ethyl-piperazin-1-ylmethyl)-6-methyl-morpholin-4-yl]-naphthyridine-8-carbonitrile] | > 150 | < 75 |
| CN1CCC(O)(CC(=O)N[C@@H]2C[C@H](C(F)(F)F)CN(c3ccc(C(F)(F)F)c4ncccc34)C2)CC1 [Example 67, 2-(4-hydroxy-1-methylpiperidin-4-yl)-N-[(3R,5S)-5-(trifluoromethyl)-1-[8-(trifluoromethyl)quinolin-5-yl]piperidin-3-yl]acetamide] | < 75 | < 75 |
| N#Cc1ccc(N2C[C@H](CN3CCC4(CC3)CC(=O)N4)O[C@H](C(F)(F)F)C2)c2nccnc12 (single isomer, unassigned) [Example 363] | < 75 | > 150 |
